Assay results: US20100022611A1 (THE UNIVERSITY COURT OF THE UNIVERSITY OF ABERDEEN, priority 2007, published 2010)
Where two headings read alike, the source gives them in different places.

Legend:
[1] = molecular target: T1, cannabinoid CB1 receptor (Mus musculus, UniProt P47746); assay: Mouse brain competition binding assay, [3H]CP55940 displacement
T1 construct: Whole brains from eight adult male mice were dissected and suspended in centrifugation buffer; from tissue; host or cells: mouse whole brain membranes
T1 sequence (P47746 whole entry): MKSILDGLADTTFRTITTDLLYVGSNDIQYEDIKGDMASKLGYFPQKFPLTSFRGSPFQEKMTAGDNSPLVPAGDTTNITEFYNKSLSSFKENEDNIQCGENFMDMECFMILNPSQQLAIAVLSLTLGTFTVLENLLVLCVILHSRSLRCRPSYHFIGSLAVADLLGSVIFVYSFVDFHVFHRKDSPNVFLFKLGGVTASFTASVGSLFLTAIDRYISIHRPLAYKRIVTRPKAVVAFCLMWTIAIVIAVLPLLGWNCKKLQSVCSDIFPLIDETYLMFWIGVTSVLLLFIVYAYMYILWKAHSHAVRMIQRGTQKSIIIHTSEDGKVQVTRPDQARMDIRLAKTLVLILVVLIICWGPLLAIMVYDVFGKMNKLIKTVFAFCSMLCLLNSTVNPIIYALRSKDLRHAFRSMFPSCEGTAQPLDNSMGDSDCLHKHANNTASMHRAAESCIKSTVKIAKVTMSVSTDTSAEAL
Procedure: The competition binding assay is a […] radioligand binding assay, which determines the affinity of a given compound for a specific receptor site, in this instance, the cannabinoid CB1 receptor. Mouse brain membranes were the chosen tissue due to their high expression of CB1 receptors.
Whole brains from eight adult male mice were dissected and suspended in centrifugation buffer. The brains were then homogenised with a Polytron Homogeniser prior to centrifugation at 1,600 RCF, 4° C. for 10 minutes. Centrifugation produced a supernatant, which was collected, and then the remaining pellet was re-suspended in centrifugation buffer and centrifuged as before. All supernatants were combined, and centrifuged at 28,000 RCF, 4° C. for a further 20 minutes. The supernatant was then discarded and the pellet re-suspended in Buffer A before incubation for 10 minutes at 37° C. The membrane suspension was then centrifuged at RCF 23,000, 4° C. for 20 minutes. The pellet was then re-suspended in Buffer A and incubated for 40 minutes at room temperature. The suspension was then centrifuged for 15 minutes at RCF 11,000, 4° C., and the pellet was then re-suspended in Buffer B. Finally a Protein Assay was carried out to determine the protein content of the mouse membrane preparation. The membrane samples were then made up into 1 mL aliquots of 1 mg/mL protein concentration and stored at −80° C. The samples were removed and defrosted when they were required.
The competition binding assay utilizes standard binding buffer, comprising:
10 μL of 1 mM stock of CP55940 in DMSO was added to 990 μL of binding buffer.
This was essential to obtain a value for specific binding, which is defined as the difference between the binding that occurs in the presence and absence of […] unlabelled CP55940.
(§1) Buffer; [^3H] […] The competition assay was initiated by the addition of the membranes. The assay was incubated at 37° C. in a water bath for 1 hour. The assay was terminated by addition of ice-cold Tris/BSA buffer and rapid vacuum filtration using a 24-well Brandel (cell harvester) and glass-fibre filters that had been soaked in Tris/BSA buffer at 4° C. for 24 hours. Each well was washed 6 times with 1.2 mL of Tris/BSA buffer. The filters were then oven dried for 1 hour. The sections of filter papers were then separated and placed in individual vials, to which 5 mL of scintillation fluid was added. The filter papers were soaked in the scintillation fluid for 1 hour before the radioactivity in each vial was quantified by liquid scintillation spectrometry.
Data were fitted to a one-site competition curve using GraphPad Prism 4.

[2] = molecular target: T2, CB1 receptor (Mus musculus, UniProt P47746); assay: [35S]GTPγS binding, compound alone (Table 2, Function); format: biochemical; design: from tissue
T2 sequence (P47746 whole entry): as above
Description: (§2) The [^35S] GTPγS binding assay is simply a means of measuring G protein activation following agonist occupation of a GPCR. The significance of replacing endogenous GTP with radiolabeled [^35S] GTPγS is two-fold. […] GTPγS. Secondly, as with any radiolabelling, the aim is to allow quantitative analysis of a selected molecular species, in this case the degree of agonist binding can be gauged by measuring the subsequent levels of radioactivity in the desired tissue.
(§3) A vehicle control was an essential aspect of the experiment. […] The vehicle is made up of 10 μL of DMSO and 990 μL of binding buffer, resulting in the assay containing 0.1% vehicle.
as §1, with “[^35S]” for “[^3H]”, “GTPγS binding” for “competition”, “[^35S] GTPγS.” for “membranes.”, “have” for “had”
(§4) The data was fitted to a sigmoidal concentration-response curve using GraphPad Prism 4. Significance was defined by a one-sample t-test (GraphPad Prism 4), which compared mean % stimulation values S.E.M. to the basal binding level, 0.0% stimulation.

[3] = molecular target: T2, CB1 receptor; assay: Electrically-evoked contractions of isolated mouse vas deferens, compound alone; design: The isolated vas deferens was then removed from the mouse by cutting through its prostatic end; from tissue; host or cells: isolated vas deferens of male albino MF1 mice; conditions: 1 μM, tested alone
Description: (§5) The vas deferens (or ductus deferens) is a muscular tube, approximately 3 mm in diameter and 30 cm in length, connecting the left and right epididymis to the ejaculatory ducts in order to move sperm. It is bound by connective tissue with an ample supply of blood vessels, nerves, and lymphatics. This in vitro bioassay exploits the expression of CB1 receptors on the presynaptic nerve terminals of this tubular structure.
(§6) The animals used in the study were male albino MF1 mice bred and were housed six to eight per-cage and were kept in a temperature-controlled room which was maintained on a fixed light-dark cycle. All mice were given free access to food and water. Subjects used in the study were a minimum of four weeks of age. Each mouse was stunned by striking the back of the head and killed by dislocation of the neck (cervical vertebrae). Following the killing, the mouse body weight was determined. A transverse incision, approximately of 1.5 cm, was made in the skin with the aid of dissection scissors. A similar-sized transverse incision was made through the lower abdominal wall. […] This was used to identify the vas deferens, which is attached to the testis via the epididymis. Gripping the epididymis with forceps, the vas deferens was cut free first from the testis and then from the connective tissue. The isolated vas deferens was then removed from the mouse by cutting through its prostatic end. This procedure was repeated on the right testis. It was important that throughout the latter two stages of this dissection, care was taken to ensure the vas deferens was not overstretched. In addition to their vas deferens, these animals were euthanized for use of their brain and small intestine by fellow researchers in different research fields. This minimisation of the number of animals euthanized complied with the European Community guidelines.
(§7) During transit, the two isolated vas deferens from each mice were kept moist in a glass vial filled with warm modified Mg^2+-free Krebs' solution. Before setting the tissue up in an organ bath, further removal of connective tissue, mesentery, and the epididymis was performed; cotton thread was tied securely to both end of the vas deferens.
(§8) The one-tailed thread was attached to the Pioden UF1 isometric transducer (Harvard Apparatus) and the two-tailed thread hung out of the bottom of the bath. The latter served as an anchor point for applying tension. […] Contractile activity was recorded using the isometric transducer and the output monitored by a computer connected to the data recording and analysis system (MacLab or PowerLab). The tissues were then ready for stimulation. […]

[4] = molecular target: CB1 receptor (Homo sapiens, UniProt P21554); assay: [35S]GTPγS binding, compound alone, 24 hours FBS-starved CB1 CHO cells; format: biochemical; conditions: 1 nM to 10 μM
CB1 receptor (Homo sapiens, UniProt P21554), sequence (P21554 whole entry): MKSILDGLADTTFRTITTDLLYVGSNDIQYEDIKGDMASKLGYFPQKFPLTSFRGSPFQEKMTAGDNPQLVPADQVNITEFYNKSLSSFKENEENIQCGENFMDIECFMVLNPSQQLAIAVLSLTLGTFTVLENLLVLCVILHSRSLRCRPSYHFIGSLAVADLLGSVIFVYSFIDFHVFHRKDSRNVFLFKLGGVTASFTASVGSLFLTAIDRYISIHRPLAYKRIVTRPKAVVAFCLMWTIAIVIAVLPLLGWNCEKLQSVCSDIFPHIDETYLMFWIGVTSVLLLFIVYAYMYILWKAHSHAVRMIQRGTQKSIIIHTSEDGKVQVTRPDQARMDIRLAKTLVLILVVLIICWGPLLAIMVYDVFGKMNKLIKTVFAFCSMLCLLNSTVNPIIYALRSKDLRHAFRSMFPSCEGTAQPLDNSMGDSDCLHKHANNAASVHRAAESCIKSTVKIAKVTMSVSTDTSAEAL
Description: as §2, §3
as §1, with “[^35S]” for “[^3H]”, “GTPγS binding” for “competition”, “[^35S] GTPγS.” for “membranes.”, “have” for “had”
as §4
The vertical lines indicate S.E.M. (standard error of the mean) (*= P<0.05, **= P<0.01, ***= P<0.001, one-sample t-test) (n=4).

[5] = molecular target: T2, CB1 receptor; assay: Electrically-evoked contractions of mouse isolated vas deferens, antagonism of CP55940; design: The isolated vas deferens was then removed from the mouse by cutting through its prostatic end; from tissue; host or cells: isolated vas deferens of male albino MF1 mice
Description: as §5, §6, §7, §8

[6] = molecular target: T2, CB1 receptor; assay: [35S]GTPγS binding assay in mouse brain membranes, antagonism of CP55940; format: biochemical; design: Whole brains from eight adult male mice were dissected and suspended in centrifugation buffer; from tissue; host or cells: mouse whole brain membranes
Description: as §2, §3
as §1, with “[^35S]” for “[^3H]”, “GTPγS binding” for “competition”, “[^35S] GTPγS.” for “membranes.”, “have” for “had”
as §4

[7] = patients, clinical trials; cited from earlier work
[8] = mouse brain membranes, [3H]CP55940 0.7 nM, read-out: Ki (nM) [affinity] Mouse Brain [3H]CP55940 Displacement

| Compound | Ki [1] [nM] | Ki [1, 8] [nM] | Function Mouse Brain [35S]GTPγS Alone ([2]; compound alone) | also measured |
| --- | --- | --- | --- | --- |
| Cc1cccc(CC(=O)c2nn(-c3ccc(Cl)cc3Cl)c(-c3ccc(Cl)cc3)c2C)c1 [ABD434] | 7.42 |  |  | Function Mouse Brain [35S]GTPγS Alone [2]: Neutral antagonist |
| Cc1c(C(=O)Cc2ccc(F)cc2)nn(-c2ccc(Cl)cc2Cl)c1-c1ccc(Cl)cc1 [ABD436] |  | 7.15 | Neutral antagonist |  |
| Cc1c(C(=O)c2ccc(F)cc2)nn(-c2ccc(Cl)cc2Cl)c1-c1ccc(Cl)cc1 [ABD450] |  | 63.2 | Neutral antagonist |  |
| COc1ccc(C(=O)c2nn(-c3ccc(Cl)cc3Cl)c(-c3ccc(Br)cc3)c2C)cc1 [ABD459] |  | 8.6 | Neutral antagonist |  |
| COc1cccc(CC(=O)c2nn(-c3ccc(Cl)cc3Cl)c(-c3ccc(Br)cc3)c2C)c1 [ABD439] |  | 19.7 | Neutral antagonist |  |
| Cc1c(C(=O)CC2CCCCC2)nn(-c2ccc(Cl)cc2Cl)c1-c1ccc(Cl)cc1 [ABD395] |  | 3.78 | Neutral antagonist | Effect on electrically-evoked contractions of isolated mouse vas deferens [3]: neither inhibited nor significantly enhanced; Effect on [35S]GTPγS binding, compound alone [4]: only a small increase; Shift in the log concentration response curve for CP55940, vas deferens contraction [5]: right-ward shift; Shift in the log concentration response curve for CP55940, [35S]GTPγS [6]: right-ward shift |
| Cc1c(C(=O)NN2CCCCC2)nn(-c2ccc(Cl)cc2Cl)c1-c1ccc(Cl)cc1 [SR141716A, N-(piperidin-1-yl)-5-(4-chlorophenyl)-1-(2,4-dichlorophenyl)-4-methyl-1H-pyrazole-3-carboxamide] |  |  |  | Body weight lost each year [7]: 5-10%; First year drop-out rate due to side effects [7]: 40-50% |
| Cc1ccc(C(=O)c2nn(-c3ccc(Cl)cc3Cl)c(-c3ccc(Cl)cc3)c2C)cc1C [ABD437] | 14.2 |  |  | Function Mouse Brain [35S]GTPγS Alone [2]: Neutral antagonist |
| Cc1c(C(=O)c2cccc(OC(F)(F)F)c2)nn(-c2ccc(Cl)cc2Cl)c1-c1ccc(Cl)cc1 [ABD454] |  | 26.7 | Neutral antagonist |  |
| Cc1c(C(O)CC2CCCCC2)nn(-c2ccc(Cl)cc2Cl)c1-c1ccc(Br)cc1 (stereo not drawn) [ABD402, 1-[5-(4-Bromophenyl)-1-(2,4-dichlorophenyl)-4-methylpyrazol-3-yl]-2-cyclohexylethanol] | 32.3 |  | Neutral antagonist | Effect on electrically-evoked contractions of isolated mouse vas deferens [3]: neither inhibited nor significantly enhanced; Effect on [35S]GTPγS binding, compound alone [4]: no reduction; Shift in the log concentration response curve for CP55940, vas deferens contraction [5]: right-ward shift; Shift in the log concentration response curve for CP55940, [35S]GTPγS [6]: right-ward shift |
| Cc1c(C(=O)c2cccc(C(F)(F)F)c2)nn(-c2ccc(Cl)cc2Cl)c1-c1ccc(Cl)cc1 [ABD449] | 64.8 |  |  | Function Mouse Brain [35S]GTPγS Alone [2]: Neutral antagonist |
| Cc1c(C(=O)c2cccc(F)c2)nn(-c2ccc(Cl)cc2Cl)c1-c1ccc(Cl)cc1 [ABD453] |  | 13.8 | Neutral antagonist |  |
| Cc1c(C(=O)CC2CCCCC2)nn(-c2ccc(Cl)cc2Cl)c1-c1ccc(Br)cc1 [ABD399] | 12.3 |  | Neutral antagonist | Effect on electrically-evoked contractions of isolated mouse vas deferens [3]: neither inhibited nor significantly enhanced; Effect on [35S]GTPγS binding, compound alone [4]: no reduction; Shift in the log concentration response curve for CP55940, vas deferens contraction [5]: right-ward shift; Shift in the log concentration response curve for CP55940, [35S]GTPγS [6]: right-ward shift |
| Cc1ccc(CC(=O)c2nn(-c3ccc(Cl)cc3Cl)c(-c3ccc(Br)cc3)c2C)cc1 [ABD440] |  | 27.1 | Neutral antagonist |  |
| Cc1c(C(=O)Cc2ccccc2)nn(-c2ccc(Cl)cc2Cl)c1-c1ccc(Cl)cc1 [ABD406] |  | 24.2 | Neutral antagonist | Effect on electrically-evoked contractions of isolated mouse vas deferens [3]: neither inhibited nor significantly enhanced; Effect on [35S]GTPγS binding, compound alone [4]: no reduction; Shift in the log concentration response curve for CP55940, vas deferens contraction [5]: right-ward shift; Shift in the log concentration response curve for CP55940, [35S]GTPγS [6]: right-ward shift |
| COc1cccc(C(=O)c2nn(-c3ccc(Cl)cc3Cl)c(-c3ccc(Br)cc3)c2C)c1 [ABD438] | 7.7 |  |  | Function Mouse Brain [35S]GTPγS Alone [2]: Neutral antagonist |
